Results as given in patent publication US10285382B2 (priority 2017, dated 2019).
Values joined by “and” are separate entries in the source; they are usually repeats but may differ in a detail not shown here. Equal entries are not always repeated. Where two headings read alike, the source gives them in different places.

How the values were obtained:
bacteria growing on TSA = settings: for number of bacteria growing on TSA: test room, DHP about 0.1 ppm, FIGS. 13A-B
salmonellae = settings: egg cooler conditions; during the trial
[1] = system: Gram-negative enteric bacilli; settings: egg cooler conditions
bacteria = settings: end of test period (0, 7, and 30 days), three locations; from about 70 total; FIGS. 9A-C
[2] = system: flies and other unwanted insects
[3] = system: S. aureus ATCC 33592 (MRSA)
E. coli K12 = settings: for % Reduction vs. Control / Log10 reduction / Log10 reduction vs. Control / Percent reduction: DHP (+)
[4] = system: MS2 Bacteriophage ATCC 15597-B1; settings: DHP (+); 1 hour
[5] = 6 Hours contact, Hood (Treated)
[6] = 6 Hours contact, Room (Treated)
[7] = 24 Hours contact, Hood (Treated)
[8] = 24 Hours contact, Room (Treated)
[9] = 48 Hours contact, Hood (Treated)
[10] = 48 Hours contact, Room (Treated)

## OO [DHP, dry hydrogen peroxide]
Bacteria growing on TSA; egg cooler conditions, treatment, 0 to 120 hours
  TSA growth: static until 120 hours
Bacteria growing on TSA; after 72 hours (P=0.05)
  number of bacteria growing on TSA: significantly reduced
Bacteria growing on TSA; after 120 hours (P=0.05)
  number of bacteria growing on TSA: significantly reduced
salmonellae
  growth of Salmonella on the XLT-4: No growth
[1]; treated group, FIG. 14
  growth on Mac at 72 hours compared to 0 hours: significantly less growth
[1]; treatment, 0 to 120 hours
  Mac growth: low throughout
Hatching eggs; After DHP treatment
  Percent Saleable Chicks: 80.82%
Hatching eggs; After DHP treatment, 4,000,000 eggs set per month
  Saleable Chick (average): 3,318,400
Hatching eggs; After DHP treatment, from each 4,000,000 eggs set
  Net increase (# Chicks): 62,000
Hatching eggs; August 2016
  After Modification Cull Rate (%): 1.58%
  After Modification First Quality Chick (% Hatched): 79.90%
Hatching eggs; Average June-November 2016
  After Modification Cull Rate (%): 1.65%
  After Modification First Quality Chick (% Hatched): 80.82%
Hatching eggs; DHP modified egg room
  cull rate lower than the cull rate before DHP modification: at least 1%
Hatching eggs; July 2016
  After Modification Cull Rate (%): 1.88%
  After Modification First Quality Chick (% Hatched): 79.78%
Hatching eggs; June 2016
  After Modification Cull Rate (%): 2.09%
  After Modification First Quality Chick (% Hatched): 78.62%
Hatching eggs; November 2016
  After Modification Cull Rate (%): 1.41%
  After Modification First Quality Chick (% Hatched): 82.96%
Hatching eggs; October 2016
  After Modification Cull Rate (%): 1.32%
  After Modification First Quality Chick (% Hatched): 82.55%
Hatching eggs; September 2016
  After Modification Cull Rate (%): 1.63%
  After Modification First Quality Chick (% Hatched): 81.09%
Hatching eggs; after installation of DHP to the setter incubator environment (room about 0.5 ppm), FIG. 6
  percent hatching of first quality chicks: 83%
Hatching eggs; eggs incubated under DHP conditions, FIG. 7
  cull rate: continues to drop
Hatching eggs; installation of DHP in the egg room
  additional birds available for shipping to the grow-out facility: about 4,000 birds
bacteria
  number of bacterial colonies on the blood agar plates, total: about 30
[2]; egg room, DHP between 0.1 ppm and 0.2 ppm
  elimination of flies and other unwanted insects: sufficient to eliminate
[2]; incorporation of DHP into the egg room
  elimination of flies and other unwanted insects, both flying and non-flying: eliminates
[2]; within the first couple days of applying DHP to the poultry space
  flying insects in the facility: virtually eliminated
[3]; [5]
  % Reduction compared to Control: 95.150%
  Average CFU/Carrier: 2.51E+05 CFU/Carrier
  Log Reduction compared to Control: 1.31
  Replicate CFU/Carrier: 1.62E+05 CFU/Carrier and 3.40E+05 CFU/Carrier
[3]; [6]
  % Reduction compared to Control: 83.053%
  Average CFU/Carrier: 8.77E+05 CFU/Carrier
  Log Reduction compared to Control: 0.77
  Replicate CFU/Carrier: 2.54E+05 CFU/Carrier and 1.50E+06 CFU/Carrier
[3]; [7]
  % Reduction compared to Control: >66.667%
  Average CFU/Carrier: <1.50E+01 CFU/Carrier
  Log Reduction compared to Control: >0.48
  Replicate CFU/Carrier: 2.50E+01 CFU/Carrier and <5.00E+00 CFU/Carrier
[3]; [8]
  % Reduction compared to Control: >88.889%
  Average CFU/Carrier: <5.00E+00 CFU/Carrier
  Log Reduction compared to Control: >0.95
  Replicate CFU/Carrier: 5.00E+00 CFU/Carrier and <5.00E+00 CFU/Carrier
[3]; [9]
  % Reduction compared to Control: >78.947%
  Average CFU/Carrier: <1.00E+01 CFU/Carrier
  Log Reduction compared to Control: >0.68
[3]; [10]
  % Reduction compared to Control: >89.474%
  Average CFU/Carrier: <5.00E+00 CFU/Carrier
  Log Reduction compared to Control: >0.98
  Replicate CFU/Carrier: <5.00E+00 CFU/Carrier
E. coli K12; 1 hour
  % Reduction vs. Control: 99.8%
  Log10 reduction: >4.78
  Log10 reduction vs. Control: 2.82
  Percent reduction: >99.9984%
E. coli K12; 2 hours
  % Reduction vs. Control: 98.1%
  Log10 reduction: >4.79
  Log10 reduction vs. Control: 1.71
  Percent reduction: >99.9984%
E. coli K12; within one hour
  aerosolized bacteria in the DHP treated space: essentially eliminated
[4]
  % Reduction vs. Control: 99.8%
  Log10 reduction: 3.54
  Log10 reduction vs. Control: 2.70
  Percent reduction: 99.97%
